Reference: article PMC10945555, “Improving Activity of New Arylurea Agents against Multidrug-Resistant and Biofilm-Producing Staphylococcus epidermidis” (ACS Medicinal Chemistry Letters, 2024)
≈ marks a conversion by molar mass, not a printed value. Like-named read-outs stand apart in the source and are kept apart here.

What was measured:
Type in all cases: cell-based
[1] = test system: clinical MDR Staphylococcus epidermidis isolates; experiment: MIC, broth microdilution, 81 clinical MDR strains; conditions: Staphylococcus epidermidis
Experimental: (§1) 2 Biological assay protocols
(§2) Microbiological tests were carried out under aseptic conditions in a laminar chamber of the 2nd […]
(§3) (BioTectum 1.2, Alchem Poland). The assessment of antimicrobial activity was carried out for final compounds in the form of free bases, soluble in DMSO (Merck, Germany), at the initial […]
(§4) concentration of 1 mg/mL. […]
were provided by Cayman Chemical, USA. […]
The antibacterial activity of selected compounds was also tested on a panel of 81 unrelated, multidrug -resistant clinical strains of Staphylococcus epidermidis from the own collection of the Department of Pharmaceutical Microbiology of the Jagiellonian University Medical College.
(§5) 2.2 Effect of evaluated compounds on planktonic cells
(§6) The susceptibility of three reference bacterial strains (Staphylococcus epidermidis ATCC […]
(§7) Table S1) and 81 clinical MDR S. epidermidis (Table S2) to the tested compounds was assessed by determining the MIC value (Minimal Inhibitory Concentration) by microdilution in a liquid medium in 96-well flat-bottom cell culture plates (Nest Biotechnology Scientific, USA). The antibacterial properties of the compo unds were tested in the concentration range from 50 µg/mL to 0.1 µg/mL by making a series of double dilutions of the compound in liquid Mueller -Hinton II Broth Cation Adjusted (MHB II, BBL TM, USA) according to the European Committee on […]
(§8) Antimicrobial Susceptibility Testing guidelines (EUCAST).2,3 The determinations were performed twice. The MIC50 and MIC90 values were determined for each of the tested

[2] = test system: Staphylococcus aureus ATCC BAA-976; experiment: MIC, broth microdilution, MDR/BPSA reference strain; conditions: ATCCBAA976; Staphylococcus aureus ATCC BAA-976; read-out: MIC MDR/BPSA
Source text: (§9) These strains included susceptible, multidrug-resistant, and biofilm-producing strains of S. epidermidis and S. aureus (MSSE, MDR/BPSE, and MDR/BPSA, respectively). The cornerstone antibiotic linezolid served as a positive control (Table 1). The impact of structural modifications at the aryloxy fragment and the aromatic moiety bound to the propyl linker on the inhibitory activity was initially investigated. […] Further optimization focused on evaluating the impact of the type of substituent and its position on the arylsulfonamide fragment’s activity.
as §1, §2, §3, §4
(§10) were provided by Cayman Chemical, USA.
(§11) The activity of all newly synthesized compounds was tested in vitro on a panel of selected reference strains from the American Type Culture Collection (ATCC) of Gram-positive […]
as §5, §6, §7, §8

[3] = test system: Staphylococcus epidermidis ATCC 35984; experiment: MIC, broth microdilution, MDR/BPSE reference strain; conditions: Staphylococcus epidermidis, ATCC35984, read-out: MIC MDR/BPSE, Staphylococcus epidermidis ATCC 35984
Source text: as §9, §1, §2, §3, §4, §10, §11, §5, §6, §7, §8

Compound `O=S(=O)(NC1CCN(CCC(Oc2ccc(C(F)(F)F)cc2)c2cccs2)CC1)c1cccc(Cl)c1` (centres unmarked) [Compound 14] has an MIC ([1]; clinical strain 1 (Table S2), read-out: MIC) of 0.1 µg/mL (≈ 0.179 µM), an MIC ([1]; clinical strain 2 (Table S2), read-out: MIC) of 0.4 µg/mL (≈ 0.715 µM) and an MIC ([1]; clinical strain 3 (Table S2), read-out: MIC) of 0.8 µg/mL (≈ 1.43 µM). The MIC ([1]; clinical strain 4 (Table S2), read-out: MIC) was 1.6 µg/mL (≈ 2.86 µM), the MIC ([1]; clinical strain 5 (Table S2), read-out: MIC) was 3.12 µg/mL (≈ 5.59 µM) and the MIC ([1]; clinical strain 6 (Table S2), read-out: MIC) was 0.8 µg/mL (≈ 1.43 µM). For the same compound, the MIC ([1]; clinical strain 7 (Table S2), read-out: MIC) was 3.12 µg/mL (≈ 5.59 µM), the MIC ([1]; clinical strain 8 (Table S2), read-out: MIC) was 1.6 µg/mL (≈ 2.86 µM) and the MIC ([1]; clinical strain 9 (Table S2), read-out: MIC) was 1.6 µg/mL (≈ 2.86 µM). The MIC ([1]; clinical strain 10 (Table S2), read-out: MIC) was 3.12 µg/mL (≈ 5.59 µM), the MIC ([1]; clinical strain 11 (Table S2), read-out: MIC) was 3.12 µg/mL (≈ 5.59 µM) and the MIC ([1]; clinical strain 12 (Table S2), read-out: MIC) was 6.25 µg/mL (≈ 11.2 µM). The MIC ([1]; clinical strain 13 (Table S2), read-out: MIC) was 6.25 µg/mL (≈ 11.2 µM), the MIC ([1]; clinical strain 14 (Table S2), read-out: MIC) was 6.25 µg/mL (≈ 11.2 µM) and the MIC ([1]; clinical strain 15 (Table S2), read-out: MIC) was 1.6 µg/mL (≈ 2.86 µM). For the same compound, the MIC ([1]; clinical strain 16 (Table S2), read-out: MIC) was 1.6 µg/mL (≈ 2.86 µM), the MIC ([1]; clinical strain 17 (Table S2), read-out: MIC) was 3.12 µg/mL (≈ 5.59 µM) and the MIC ([1]; clinical strain 18 (Table S2), read-out: MIC) was 3.12 µg/mL (≈ 5.59 µM). For the same compound, the MIC ([1]; clinical strain 19 (Table S2), read-out: MIC) was 3.12 µg/mL (≈ 5.59 µM), the MIC ([1]; clinical strain 20 (Table S2), read-out: MIC) was 1.6 µg/mL (≈ 2.86 µM) and the MIC ([1]; clinical strain 21 (Table S2), read-out: MIC) was 3.12 µg/mL (≈ 5.59 µM). It also gave an MIC ([1]; clinical strain 22 (Table S2), read-out: MIC) of 6.25 µg/mL (≈ 11.2 µM), an MIC ([1]; clinical strain 23 (Table S2), read-out: MIC) of 12.5 µg/mL (≈ 22.4 µM) and an MIC ([1]; clinical strain 24 (Table S2), read-out: MIC) of 6.25 µg/mL (≈ 11.2 µM). The MIC ([1]; clinical strain 25 (Table S2), read-out: MIC) was 6.25 µg/mL (≈ 11.2 µM), the MIC ([1]; clinical strain 26 (Table S2), read-out: MIC) was 6.25 µg/mL (≈ 11.2 µM) and the MIC ([1]; clinical strain 27 (Table S2), read-out: MIC) was 3.12 µg/mL (≈ 5.59 µM). It also gave an MIC ([1]; clinical strain 28 (Table S2), read-out: MIC) of 12.5 µg/mL (≈ 22.4 µM), an MIC ([1]; clinical strain 29 (Table S2), read-out: MIC) of 12.5 µg/mL (≈ 22.4 µM) and an MIC ([1]; clinical strain 30 (Table S2), read-out: MIC) of 12.5 µg/mL (≈ 22.4 µM). The MIC ([1]; clinical strain 31 (Table S2), read-out: MIC) was 12.5 µg/mL (≈ 22.4 µM), the MIC ([1]; clinical strain 32 (Table S2), read-out: MIC) was 6.25 µg/mL (≈ 11.2 µM) and the MIC ([1]; clinical strain 33 (Table S2), read-out: MIC) was 3.12 µg/mL (≈ 5.59 µM). The MIC ([1]; clinical strain 34 (Table S2), read-out: MIC) was 12.5 µg/mL (≈ 22.4 µM), the MIC ([1]; clinical strain 35 (Table S2), read-out: MIC) was 12.5 µg/mL (≈ 22.4 µM) and the MIC ([1]; clinical strain 36 (Table S2), read-out: MIC) was 50 µg/mL (≈ 89.4 µM). It also gave an MIC ([1]; clinical strain 37 (Table S2), read-out: MIC) of 12.5 µg/mL (≈ 22.4 µM), an MIC ([1]; clinical strain 38 (Table S2), read-out: MIC) of 12.5 µg/mL (≈ 22.4 µM) and an MIC ([1]; clinical strain 39 (Table S2), read-out: MIC) of 12.5 µg/mL (≈ 22.4 µM). For the same compound, the MIC ([1]; clinical strain 40 (Table S2), read-out: MIC) was 25 µg/mL (≈ 44.7 µM), the MIC ([1]; clinical strain 41 (Table S2), read-out: MIC) was 25 µg/mL (≈ 44.7 µM) and the MIC ([1]; clinical strain 42 (Table S2), read-out: MIC) was 12.5 µg/mL (≈ 22.4 µM). The MIC ([1]; clinical strain 43 (Table S2), read-out: MIC) was 25 µg/mL (≈ 44.7 µM), the MIC ([1]; clinical strain 44 (Table S2), read-out: MIC) was 50 µg/mL (≈ 89.4 µM) and the MIC ([1]; clinical strain 45 (Table S2), read-out: MIC) was 25 µg/mL (≈ 44.7 µM). It also gave an MIC ([1]; clinical strain 46 (Table S2), read-out: MIC) of 50 µg/mL (≈ 89.4 µM), an MIC ([1]; clinical strain 47 (Table S2), read-out: MIC) of 25 µg/mL (≈ 44.7 µM) and an MIC ([1]; clinical strain 48 (Table S2), read-out: MIC) of 3.12 µg/mL (≈ 5.59 µM). The MIC ([1]; clinical strain 49 (Table S2), read-out: MIC) was 0.1 µg/mL (≈ 0.179 µM), the MIC ([1]; clinical strain 50 (Table S2), read-out: MIC) was 50 µg/mL (≈ 89.4 µM) and the MIC ([1]; clinical strain 51 (Table S2), read-out: MIC) was 50 µg/mL (≈ 89.4 µM). It also gave an MIC ([1]; clinical strain 52 (Table S2), read-out: MIC) of 3.12 µg/mL (≈ 5.59 µM), an MIC ([1]; clinical strain 53 (Table S2), read-out: MIC) of 12.5 µg/mL (≈ 22.4 µM) and an MIC ([1]; clinical strain 54 (Table S2), read-out: MIC) of 12.5 µg/mL (≈ 22.4 µM). It also gave an MIC ([1]; clinical strain 55 (Table S2), read-out: MIC) of 50 µg/mL (≈ 89.4 µM), an MIC ([1]; clinical strain 56 (Table S2), read-out: MIC) of 3.12 µg/mL (≈ 5.59 µM) and an MIC ([1]; clinical strain 57 (Table S2), read-out: MIC) of 12.5 µg/mL (≈ 22.4 µM). The MIC ([1]; clinical strain 58 (Table S2), read-out: MIC) was 6.25 µg/mL (≈ 11.2 µM), the MIC ([1]; clinical strain 59 (Table S2), read-out: MIC) was 50 µg/mL (≈ 89.4 µM) and the MIC ([1]; clinical strain 60 (Table S2), read-out: MIC) was 3.12 µg/mL (≈ 5.59 µM). For the same compound, the MIC ([1]; clinical strain 61 (Table S2), read-out: MIC) was 50 µg/mL (≈ 89.4 µM), the MIC ([1]; clinical strain 62 (Table S2), read-out: MIC) was 6.25 µg/mL (≈ 11.2 µM) and the MIC ([1]; clinical strain 63 (Table S2), read-out: MIC) was 0.4 µg/mL (≈ 0.715 µM). It also gave an MIC ([1]; clinical strain 64 (Table S2), read-out: MIC) of 6.25 µg/mL (≈ 11.2 µM), an MIC ([1]; clinical strain 65 (Table S2), read-out: MIC) of 6.25 µg/mL (≈ 11.2 µM) and an MIC ([1]; clinical strain 66 (Table S2), read-out: MIC) of 50 µg/mL (≈ 89.4 µM). The MIC ([1]; clinical strain 67 (Table S2), read-out: MIC) was 50 µg/mL (≈ 89.4 µM), the MIC ([1]; clinical strain 68 (Table S2), read-out: MIC) was 50 µg/mL (≈ 89.4 µM) and the MIC ([1]; clinical strain 69 (Table S2), read-out: MIC) was 3.12 µg/mL (≈ 5.59 µM). The MIC ([1]; clinical strain 70 (Table S2), read-out: MIC) was 50 µg/mL (≈ 89.4 µM), the MIC ([1]; clinical strain 71 (Table S2), read-out: MIC) was 50 µg/mL (≈ 89.4 µM) and the MIC ([1]; clinical strain 72 (Table S2), read-out: MIC) was 3.12 µg/mL (≈ 5.59 µM). For the same compound, the MIC ([1]; clinical strain 73 (Table S2), read-out: MIC) was 0.8 µg/mL (≈ 1.43 µM), the MIC ([1]; clinical strain 74 (Table S2), read-out: MIC) was 50 µg/mL (≈ 89.4 µM) and the MIC ([1]; clinical strain 75 (Table S2), read-out: MIC) was 6.25 µg/mL (≈ 11.2 µM). It also gave an MIC ([1]; clinical strain 76 (Table S2), read-out: MIC) of 3.12 µg/mL (≈ 5.59 µM), an MIC ([1]; clinical strain 77 (Table S2), read-out: MIC) of 6.25 µg/mL (≈ 11.2 µM) and an MIC ([1]; clinical strain 78 (Table S2), read-out: MIC) of 6.25 µg/mL (≈ 11.2 µM). The MIC ([1]; clinical strain 79 (Table S2), read-out: MIC) was 6.25 µg/mL (≈ 11.2 µM), the MIC ([1]; clinical strain 80 (Table S2), read-out: MIC) was 12.5 µg/mL (≈ 22.4 µM) and the MIC ([1]; clinical strain 81 (Table S2), read-out: MIC) was 6.25 µg/mL (≈ 11.2 µM). The MIC ([1]; mean of MIC values against clinical MDR-SE isolates, read-out: mean MIC) was 10 µg/mL (≈ 17.9 µM), the MIC50 ([1]; 81 clinical strains, concentration inhibiting growth of 50% clinical isolates) was 6.25 µg/mL (≈ 11.2 µM) and the MIC90 ([1]; 81 clinical strains, concentration inhibiting growth of 90% of clinical isolates) was 50 µg/mL (≈ 89.4 µM). For the same compound, the MIC [2] was 12.5 µg/mL (≈ 22.4 µM) and the MIC [3] was at most 0.8 µg/mL.
